Entries after “also recorded” stand apart in the source; their conditions may differ.

From patent US9512095B2, “Polymorph forms of desazadesferrithiocin analogs” (Ferrokin Biosciences, Inc., priority 2013, dated 2016) come the findings set out here.

A short description of data set [1]: Form inter-conversion by stirring in TBME/ethanol/water (20/5/1, v/v/v). The class given is physicochemical. The conditions noted are these: TBME/ethanol/water (20/5/1, v/v/v) at 18-23° C. for 4 days. As to the method: A mixture of Forms A, B, C, and D (present in equal amounts) of Compound 1 was stirred in TBME/ethanol/water (20/5/1, v/v/v) at 18-23° C. for 4 days.
A reaction vessel was charged with a mixture of Forms A-D of Compound 1 (25 mg, 1.0 wt.). A solution of TBME/EtOH/water (20/5/1, 10 vol) was added, and was stirred at 18-23° C. for 4 days. The solid was isolated by filtration, washed with recycled mother liquors, and dried under vacuum under a N2 atmosphere.
A reaction vessel was charged with Form A of Compound 1 (25 mg, 1.0 wt.). A solution of TBME/EtOH/water (20/5/1, 10 vol) was added, and was stirred at 18-23° C. for 4 days. The solid was isolated by filtration, washed with recycled mother liquors, and dried under vacuum under a N2 atmosphere.
A reaction vessel was charged with Form B of Compound 1 (25 mg, 1.0 wt.). A solution of TBME/EtOH/water (20/5/1, 10 vol) was added, and was stirred at 18-23° C. for 4 days. The solid was isolated by filtration, washed with recycled mother liquors, and dried under vacuum under a N2 atmosphere.
A reaction vessel was charged with Form C of Compound 1 (25 mg, 1.0 wt.). A solution of TBME/EtOH/water (20/5/1, 10 vol) was added, and was stirred at 18-23° C. for 4 days. The solid was isolated by filtration, washed with recycled mother liquors, and dried under vacuum under a N2 atmosphere.
A reaction vessel was charged with Form D of Compound 1 (25 mg, 1.0 wt.). A solution of TBME/EtOH/water (20/5/1, 10 vol) was added, and was stirred at 18-23° C. for 4 days. The solid was isolated by filtration, washed with recycled mother liquors, and dried under vacuum under a N2 atmosphere.

Data set [2] can be described thus: Drying of Form A under vacuum at elevated temperature (weight loss, XRPD, HPLC/1H NMR). The class given is physicochemical. The protocol: Form A (1.0 g) was dried at 60° C. under reduced pressure for 24 h. During this time the sample decreased in weight by −7.3% w/w.
A sample of Form A was dried for 48 h under vacuum at 60° C. and reweighed. The material decreased in weight by 9.30% w/w.
The reactions conditions were repeated on a 1.0 g scale: a sample of Form A was dried for 24 hr under vacuum at 60° C. and reweighed. The material decreased in weight by 7.30% w/w. […] The material was allowed to cool to ambient temperature under vacuum before releasing the vacuum with nitrogen and transferring the Form D into a poly-tub under nitrogen.

Data set [3] in a line: Humidity exposure / comparative hygroscopicity study of solid forms (weight change, appearance, XRPD). The class given is physicochemical.
A short description of data set [4]: Human pharmacokinetics: open-label, randomized relative bioavailability study of Compounds 1 and 3 (plasma total, unbound and iron bound Compound 2). Format: in vivo. The conditions noted are these: healthy adults, oral capsules; plasma Compound 2; relative to Compound 3, see Table 14. The protocol: The purpose of this Example is to characterize the pharmacokinetic profiles of Compound 1 (disodium salt) and its magnesium hydroxide salt counterpart, Compound 3:
This human study is part of an open-label, randomized, single dose, 3-period, relative bioavailability study in up to 28 healthy adults 18-65 years of age inclusive, investigating the pharmacokinetics, safety, and tolerability of Compounds 1 and 3. In this study, each study compound is administered as a single dose of 36.2 mg/kg/day or 18.1 mg/kg/day, respectively (as free acid), and as 2 doses of 36.2 mg/kg or 18.1 mg/kg, respectively (as free acid), given 12 hours apart. Table 13 provides dosages relative to free acid content.
The magnesium hydroxide salt (Compound 3) is administered as oral capsules in the following strengths: 50, 100, 200, 375 and 500 mg. The disodium salt (Compound 1) is administered as oral capsules in the following strengths: 54.1, 272.8 and 408.7 mg.
There will be 3 treatment periods in this study and 4 possible treatments. […]
Actual pharmacokinetic blood sample collection times versus time of dosing will be monitored. […]

The nature of data set [5]: Humidity exposure / comparative hygroscopicity study of solid forms (weight change, appearance, XRPD). To be noted: for XRPD form: 48 hrs; for XRPD (final form): 18-23° C., 48 h. Format: physicochemical. The protocol:
X-Ray powder diffraction (XRPD) analysis was carried out using a Bruker D2 Phaser powder diffractometer employing a LynxEye detector. The samples underwent minimum preparation but, if necessary they were milled in a pestle and mortar before acquisition.
The samples were continuously spun during data collection and scanned using a step size of 0.02° two theta (2θ) between the range of 4°-40° two theta and a count time of 10 seconds per step. Data was processed using Bruker Diffrac. Suite.
Samples of Form D were placed in humidity chambers at 45%, 60% and 75% RH at 18-23° C. and their weight changes were monitored at intervals up to 48 h.
Accurately weighed samples of Form D were placed in humidity chambers at 45%, 60% and 75% R.H. and monitored for weight changes over 48 h.

[6] abbreviates: 75% relative humidity (RH) at 15-25° C. for 1-2 days.

Turning to `COCCOCCOCCOc1cccc(C2=N[C@@](C)(C(=O)[O-])CS2)c1[O-].[Na+].[Na+]` [Form A, (S)-2-(2-hydroxy-3-(2-(2-(2-methoxyethoxy)ethoxy)ethoxy)phenyl)-4-methyl-4,5-dihydrothiazole-4-carboxylate disodium Form A polymorph], in data set [1], the “Output form after stirring in solvent” value is “remained Form A”. In addition, the values for the Form after drying entry in data set [2] (40° C. under vacuum for 48 h) and in data set [2] (60° C. under vacuum for 24 hours) were “partial transformation of Form A to Form D” and “converted to Form D; also recorded: converted into Form D”, respectively. Besides, the “Chemical stability on drying (HPLC and 1H NMR)” value in data set [2] (60° C. under vacuum for 48 h) is reported as “decomposition had not occurred”. The “Decrease in weight on drying” value in data set [2] (60° C. under vacuum for 48 h) is 9.30 % w/w. For the same compound, in data set [2] (60° C. under vacuum for 48 h), the “Form after drying (XRPD)” value is reported as “Form D”. Besides, the “Form after exposure to humidity” value in data set [3] (43% RH at 50° C. for 5 days) and in data set [3] (setting [6]) was “remained as Form A” in each case.
As for `COCCOCCOCCOc1cccc(C2=N[C@@](C)(C(=O)[O-])CS2)c1[O-].[Na+].[Na+]` [Form B, (S)-2-(2-hydroxy-3-(2-(2-(2-methoxyethoxy)ethoxy)ethoxy)phenyl)-4-methyl-4,5-dihydrothiazole-4-carboxylate disodium Form B polymorph], the “Output form after stirring in solvent” value in data set [1] is reported as “converted into Form A”. Besides, the “Form after exposure to humidity” value in data set [3] (setting [6]) is “re-generated Form A”.
As to `COCCOCCOCCOc1cccc(C2=N[C@@](C)(C(=O)[O-])CS2)c1[O-].[Na+].[Na+]` [Compound 1, (S)-2-(2-hydroxy-3-(2-(2-(2-methoxyethoxy)ethoxy)ethoxy)phenyl)-4-methyl-4,5-dihydrothiazole-4-carboxylate disodium], in data set [4], the “AUC higher than Compound 3” value is approximately 22% and the “Cmax higher than Compound 3” value is approximately 35%.
`COCCOCCOCCOc1cccc(C2=N[C@@](C)(C(=O)[O-])CS2)c1[O-].[Na+].[Na+]` [Form D, (S)-2-(2-hydroxy-3-(2-(2-(2-methoxyethoxy)ethoxy)ethoxy)phenyl)-4-methyl-4,5-dihydrothiazole-4-carboxylate disodium Form D polymorph]: the XRPD form result in data set [5] (45% R.H.), in data set [5] (60% R.H.) and in data set [5] (75% R.H.) was “Form A” each time. Besides, the “XRPD (final form)” value in data set [5] (60% RH) is “Form A”; in data set [5] (75% RH), “Form A”; in data set [3] (43% RH, 18-23° C., 48 h), “Form A”. In addition, the “Form after exposure to humidity” value in data set [5] (exposed to ≧43% relative humidity) is “reverts to Form A”. The “Output form after stirring in solvent” value in data set [1] was “converted into Form A”.
`COCCOCCOCCOc1cccc(C2=N[C@@](C)(C(=O)[O-])CS2)c1[O-].[Na+].[Na+]` [Form C, (S)-2-(2-hydroxy-3-(2-(2-(2-methoxyethoxy)ethoxy)ethoxy)phenyl)-4-methyl-4,5-dihydrothiazole-4-carboxylate disodium Form C polymorph]: the “Output form after stirring in solvent” value in data set [1] was “converted into Form A”. Also, in data set [3] (75% RH at 15-25° C. for 22 h), the “Form after exposure to humidity” value is given as “re-generated Form A” and the “Weight gain on exposure to humidity” value came to 18.5 % w/w.
